Data published in PubChem BioAssay (NCI).
Where “and” joins values, the source holds several entries; their conditions need not be identical. Identical values can stand only once.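 A five-concentration, 48-hour dose response in 96-well plates underlies each endpoint, interpolated linearly between surrounding concentrations. GI50 marks 50% less growth. Definition used: TGI = concentration required for complete inhibition of growth.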

Tests used:
Test in all cases: DTP human tumour cell line panel, 48 h
COLO 205 colon = tested on: COLO 205 colon
DU-145 prostate = tested on: DU-145 prostate
NCI-H460 lung = tested on: NCI-H460 lung
NCI/ADR-RES ovarian = tested on: NCI/ADR-RES ovarian
RXF 393 renal = tested on: RXF 393 renal
SK-OV-3 ovarian = tested on: SK-OV-3 ovarian
T-47D breast = tested on: T-47D breast
UO-31 renal = tested on: UO-31 renal

In the case of `Cc1ccc(C[As+](c2ccccc2)(c2ccccc2)c2ccccc2)cc1`, the GI50 (COLO 205 colon) is reported as 0.412 µM, the TGI (COLO 205 colon) is reported as 2.45 µM and the GI50 (DU-145 prostate) is reported as 1.36 µM. The TGI (DU-145 prostate) was greater than 56.8 µM, the GI50 (NCI-H460 lung) was 0.674 µM and the TGI (NCI-H460 lung) was 8.36 µM. The GI50 (NCI/ADR-RES ovarian) was 49.1 µM, the TGI (NCI/ADR-RES ovarian) was greater than 100 µM and the GI50 (RXF 393 renal) was 1.62 µM. It also gave a TGI (RXF 393 renal) of 11.4 µM, a GI50 (SK-OV-3 ovarian) of 1.82 µM and a TGI (SK-OV-3 ovarian) greater than 23.5 µM. It also gave a GI50 (T-47D breast) of 0.125 µM, a TGI (T-47D breast) of 10.3 µM and a GI50 (UO-31 renal) of 12.4 µM. For the same compound, the TGI (UO-31 renal) was 97.4 µM.
In the case of `Nc1[nH]nc2nc(-c3cc(Cl)ccc3Cl)cc(-c3ccc(F)cc3)c12`, the GI50 (COLO 205 colon) is reported as 16.5 µM, the TGI (COLO 205 colon) is reported as 34.1 µM and the GI50 (DU-145 prostate) is reported as 23.6 µM. It also gave a TGI (DU-145 prostate) of 53.8 µM, a GI50 (NCI-H460 lung) of 19.7 µM and a TGI (NCI-H460 lung) of 58 µM. The GI50 (NCI/ADR-RES ovarian) was 23 µM, the TGI (NCI/ADR-RES ovarian) was 59.9 µM and the GI50 (RXF 393 renal) was 18.3 µM. The TGI (RXF 393 renal) was 42.3 µM, the GI50 (T-47D breast) was 20.2 µM and the TGI (T-47D breast) was greater than 100 µM. For the same compound, the GI50 (UO-31 renal) was 13.8 µM and the TGI (UO-31 renal) was 34.7 µM.
For `CN1CCC2(CC1)N=C(SCC(=O)Nc1cnc3ccccc3c1)C(c1ccc(Br)cc1)=N2`, the GI50 (COLO 205 colon) was 1.64 µM, the TGI (COLO 205 colon) was 3.35 µM and the GI50 (DU-145 prostate) was 3.24 µM. For the same compound, the TGI (DU-145 prostate) was 10.4 µM, the GI50 (NCI-H460 lung) was 2.03 µM and the TGI (NCI-H460 lung) was 4.28 µM. It also gave a GI50 (NCI/ADR-RES ovarian) of 2.27 µM, a TGI (NCI/ADR-RES ovarian) of 5.76 µM and a GI50 (RXF 393 renal) of 1.77 µM. It also gave a TGI (RXF 393 renal) of 4.29 µM, a GI50 (SK-OV-3 ovarian) of 4.25 µM and a TGI (SK-OV-3 ovarian) of 15.9 µM. It also gave a GI50 (T-47D breast) of 2.24 µM, a TGI (T-47D breast) of 7.35 µM and a GI50 (UO-31 renal) of 1.37 µM. The TGI (UO-31 renal) was 2.68 µM.
In the case of `CCCCC(=O)N(c1ccc(Nc2c3ccccc3nc3cc([N+](=O)[O-])ccc23)cc1)S(C)(=O)=O`, the GI50 (COLO 205 colon) is reported as 12.7 µM, the TGI (COLO 205 colon) is reported as 36 µM and the GI50 (DU-145 prostate) is reported as 1.67 µM. For the same compound, the TGI (DU-145 prostate) was 74 µM, the GI50 (NCI-H460 lung) was 0.381 µM and the TGI (NCI-H460 lung) was 12.8 µM. It also gave a GI50 (NCI/ADR-RES ovarian) of 27 µM, a TGI (NCI/ADR-RES ovarian) greater than 100 µM and a GI50 (RXF 393 renal) of 8.44 µM. The TGI (RXF 393 renal) was 27.8 µM, the GI50 (SK-OV-3 ovarian) was 27 µM and the TGI (SK-OV-3 ovarian) was greater than 100 µM. It also gave a GI50 (T-47D breast) of 0.588 µM, a TGI (T-47D breast) of 6.73 µM and a GI50 (UO-31 renal) of 3.61 µM. For the same compound, the TGI (UO-31 renal) was 45.3 µM.
`Cc1ccc(N)cc1[As]=[As]c1cc(N)ccc1C` (stereo not drawn) gave a GI50 (COLO 205 colon) of 1.33 µM, a TGI (COLO 205 colon) of 2.77 µM and a GI50 (DU-145 prostate) of 1.81 µM. It also gave a TGI (DU-145 prostate) of 3.23 µM, a GI50 (NCI-H460 lung) of 3.08 µM and a TGI (NCI-H460 lung) of 12.2 µM. It also gave a GI50 (NCI/ADR-RES ovarian) of 3.19 µM, a TGI (NCI/ADR-RES ovarian) greater than 100 µM and a GI50 (RXF 393 renal) of 1.19 µM. The TGI (RXF 393 renal) was 2.47 µM, the GI50 (SK-OV-3 ovarian) was 3.59 µM and the TGI (SK-OV-3 ovarian) was 9.43 µM. For the same compound, the GI50 (UO-31 renal) was 1.57 µM and the TGI (UO-31 renal) was 3.03 µM.
`COc1ccc(OC)c(Nc2nc3nonc3nc2Nc2cccc(Br)c2)c1` gave a GI50 (COLO 205 colon) of 0.853 µM, a TGI (COLO 205 colon) of 2.73 µM and a GI50 (DU-145 prostate) of 3.4 µM. The TGI (DU-145 prostate) was greater than 100 µM, the GI50 (NCI-H460 lung) was 0.504 µM and the TGI (NCI-H460 lung) was greater than 100 µM. It also gave a GI50 (NCI/ADR-RES ovarian) of 0.541 µM, a TGI (NCI/ADR-RES ovarian) of 13.9 µM and a GI50 (SK-OV-3 ovarian) of 0.486 µM. The TGI (SK-OV-3 ovarian) was 4.1 µM, the GI50 (T-47D breast) was 0.285 µM and the TGI (T-47D breast) was 2.17 µM. For the same compound, the GI50 (UO-31 renal) was 0.622 µM and the TGI (UO-31 renal) was 53.7 µM.
With `COC(=O)[C@H](Cc1cn(C)cn1)NC(=O)[C@H](CC(=O)OCc1ccccc1)NC(=O)Nc1cc(C(F)(F)F)cc(C(F)(F)F)c1` the GI50 (COLO 205 colon) was 3.79 µM, the TGI (COLO 205 colon) was 13.8 µM and the GI50 (DU-145 prostate) was 6.18 µM. For the same compound, the TGI (DU-145 prostate) was 19.3 µM, the GI50 (NCI-H460 lung) was 13.4 µM and the TGI (NCI-H460 lung) was 28.7 µM. For the same compound, the GI50 (NCI/ADR-RES ovarian) was 17.3 µM, the TGI (NCI/ADR-RES ovarian) was 35.6 µM and the GI50 (SK-OV-3 ovarian) was 9.07 µM. The TGI (SK-OV-3 ovarian) was 21.4 µM, the GI50 (T-47D breast) was 7.38 µM and 4.83 µM and the TGI (T-47D breast) was 18.6 µM. It also gave a GI50 (UO-31 renal) of 11.5 µM and a TGI (UO-31 renal) of 24.2 µM.
Compound `CN(C)c1ccc(/C=C(\C#N)c2cc3ccccc3[nH]2)cc1` has a GI50 (COLO 205 colon) of 0.566 µM, a TGI (COLO 205 colon) of 7.39 µM and a GI50 (DU-145 prostate) of 3.41 µM. The TGI (DU-145 prostate) was 35.4 µM, the GI50 (NCI-H460 lung) was 0.476 µM and the TGI (NCI-H460 lung) was greater than 100 µM. For the same compound, the GI50 (NCI/ADR-RES ovarian) was 0.49 µM, the TGI (NCI/ADR-RES ovarian) was greater than 100 µM and the GI50 (SK-OV-3 ovarian) was 2.28 µM. It also gave a TGI (SK-OV-3 ovarian) greater than 100 µM, a GI50 (T-47D breast) of 0.585 µM and a TGI (T-47D breast) greater than 100 µM. For the same compound, the GI50 (UO-31 renal) was 2.01 µM and the TGI (UO-31 renal) was greater than 100 µM.
`COC(=O)C1C(C(=O)O)C2(c3ccccc3)C(=O)C1(c1ccccc1)C(c1ccccc1)=C2c1ccccc1` (stereo not drawn) showed a GI50 (COLO 205 colon) of 18.8 µM, a TGI (COLO 205 colon) of 39.3 µM and a GI50 (DU-145 prostate) of 16.9 µM. For the same compound, the TGI (DU-145 prostate) was 34 µM, the GI50 (NCI-H460 lung) was 13.6 µM and the TGI (NCI-H460 lung) was 29.1 µM. It also gave a GI50 (NCI/ADR-RES ovarian) of 18.4 µM, a TGI (NCI/ADR-RES ovarian) of 34 µM and a GI50 (RXF 393 renal) of 16.8 µM. For the same compound, the TGI (RXF 393 renal) was 36.3 µM, the GI50 (SK-OV-3 ovarian) was 18.3 µM and the TGI (SK-OV-3 ovarian) was 36.6 µM. It also gave a GI50 (UO-31 renal) of 17.9 µM and a TGI (UO-31 renal) of 36 µM.
With `NC(=O)c1c(NC(=O)c2cccs2)sc2c1CCC(=O)C2` the GI50 (DU-145 prostate) was 4.13 µM, the TGI (DU-145 prostate) was greater than 100 µM and the GI50 (NCI-H460 lung) was 2.98 µM. It also gave a TGI (NCI-H460 lung) greater than 100 µM, a GI50 (NCI/ADR-RES ovarian) of 2.5 µM and a TGI (NCI/ADR-RES ovarian) of 26.4 µM. For the same compound, the GI50 (RXF 393 renal) was 2.05 µM, the TGI (RXF 393 renal) was 8.49 µM and the GI50 (T-47D breast) was 2.05 µM. It also gave a TGI (T-47D breast) greater than 100 µM, a GI50 (UO-31 renal) of 1.58 µM and a TGI (UO-31 renal) of 10.1 µM.
Work on `COc1cc(OCc2ccccc2)c2c(CCC(=O)O)cc(=O)oc2c1` (tested in a mixture with another compound) yielded a TGI (COLO 205 colon) greater than 100 µM, a TGI (DU-145 prostate) greater than 100 µM and a TGI (NCI/ADR-RES ovarian) greater than 100 µM. It also gave a TGI (SK-OV-3 ovarian) greater than 100 µM and a TGI (UO-31 renal) greater than 100 µM.
Compound `CCc1nc(C)cn1C(=O)OCc1nc2nc(Cl)nc(N3CCOCC3)c2[nH]1` has a GI50 (COLO 205 colon) of 1.37 µM, a TGI (COLO 205 colon) of 2.94 µM and a GI50 (DU-145 prostate) of 1.22 µM. It also gave a TGI (DU-145 prostate) of 2.52 µM, a GI50 (NCI-H460 lung) of 1.7 µM and a TGI (NCI-H460 lung) of 3.76 µM. For the same compound, the GI50 (NCI/ADR-RES ovarian) was 2.64 µM, the TGI (NCI/ADR-RES ovarian) was 9.02 µM and the GI50 (RXF 393 renal) was 0.658 µM. For the same compound, the TGI (RXF 393 renal) was 2.01 µM, the GI50 (SK-OV-3 ovarian) was 4.04 µM and the TGI (SK-OV-3 ovarian) was 15.6 µM. It also gave a GI50 (UO-31 renal) of 1.01 µM and a TGI (UO-31 renal) of 2.18 µM.
